Laboratory results published in patent EP1085812B1, “POTATO CYST NEMATODE CONTROLLING FACTORS AND THEIR USE IN AGRICULTURE” (priority 1998, dated 1999).
Where two headings read alike, the source gives them in different places.

How the values were obtained:
[1] = test system: G. rostochiensis pathotype Ro-1; assay: Interaction of glycoalkaloid dilution series with PRL in hatching assay; assay type: in vivo; conditions: Fig. 9
From the text: To investigate these interactions further, the response of PCN hatch to a dilution series of single natural potato-produced HFs (the glycoalkaloids α-solanine and α-chaconine: Devine, K.J. et al. ((1996) supra) was studied in the presence and absence of a PRL preparation, the concentration of the latter being adjusted to that used in Figs. 4 and 5.
Logarithmic dilution series ([…]) of the glycoalkaloids α-chaconine and α-solanine (Sigma Chemical Co. Poole, UK) were each prepared either in water or PRL (1mg ml^-1). Hatching activity was determined in these dilution series, with PRL (1mg ml^-1) and water as controls.
At each glycoalkaloid concentration, the hatching activity of (glycoalkaloid only), (PRL only) and (glycolalkaloid + PRL) preparations was determined. The difference between the observed hatch (in the presence of (glycoalkaloid only), (PRL only) and (glycoalkaloid + PRL) and the expected hatch if the effects of the glycoalkaloid and PRL were additive, (i.e. (glycoalkaloid only)) + (PRL only) was determined at each concentration of glycoalkaloid. The results are depicted in Fig. 9.

[2] = test system: PCN; conditions: in aqueous solutions or as a solid; cited from earlier work
[3] = cited from earlier work

Compound: C[C@H]1CC[C@@H]2[C@@H](C)[C@H]3[C@H](C[C@H]4[C@@H]5CC=C6C[C@@H](O[C@@H]7O[C@H](CO)[C@H](O)[C@H](O[C@@H]8O[C@H](CO)[C@@H](O)[C@H](O)[C@H]8O)[C@H]7O[C@@H]7O[C@@H](C)[C@H](O)[C@@H](O)[C@H]7O)CC[C@]6(C)[C@H]5CC[C@]34C)N2C1 [α-solanine]
- effect on hatching activity of PRL ([1]; high concentrations of glycoalkaloid, dilution series in PRL (1mg ml^-1)): markedly inhibited
- effect on hatching activity of PRL ([1]; lower concentrations of glycoalkaloid, over a range of four orders of magnitude): interacted synergistically

Compound: trans-2-(2-,13-dihydroxy-9-methoxy-7,7,16-trimethyl-5,10,20-trioxo-19-oxahexacyclo [9.7.0.1^3,6.0^3,8.1^12,16]-eicosa-1(11),8-dien-15-yl) cyclopropropanecarboxylic acid [hatching agent]
- concentration at which active [2]: 0.01 - 1000 mg/kg soil
- optimum concentration [2]: 1 - 100 mg/kg soil
- stability ([3]; pH below 2 and above 7): unstable
- stability ([3]; temperatures above about 35°C): unstable
